Tested on: Patients diagnosed with Alzheimer's Disease
Experiment: Adverse events and discontinuation in 5-month slow-titration trial
Assay type: in vivo, human
Protocol: Subjects in the Placebo group received 21 weeks (5 months) of placebo medication.
The safety of the drug was also monitored throughout the study. Blood samples for biochemistry and haematology and random urine sample for urinalysis were taken at each visit and at completion for all efficacy testing. Systolic and diastolic blood pressure were measured in the sitting position, pulse and vital signs were recorded at each visit.

Structure (SMILES): COc1ccc2c3c1O[C@H]1C[C@@H](O)C=C[C@@]31CCN(C)C2 [GAL, galantamine]
- Serious adverse event Cardiac failure: number (16 mg/day): 3
- Serious adverse event Dehydration: % (16 mg/day): (1.1%)
- Serious adverse event Dehydration: number (16 mg/day): 3
- Serious adverse event Diarrhea: % (16 mg/day): (1.1%)
- Serious adverse event Diarrhea: number (16 mg/day): 3
- Serious adverse event Dyspnea: % (16 mg/day): (0.7%)
- Serious adverse event Dyspnea: number (16 mg/day): 2
- Serious adverse event Fall: % (16 mg/day): (0.4%)
- Serious adverse event Fall: number (16 mg/day): 1
- Serious adverse event Gi haemorrhage: % (16 mg/day): (0.0%)
- Serious adverse event Gi haemorrhage: number (16 mg/day): 0
- Serious adverse event Injury: % (16 mg/day): (0.4%)
- Serious adverse event Injury: number (16 mg/day): 1
- Serious adverse event Myocardial infarction: % (16 mg/day): (0.4%)
- Serious adverse event Myocardial infarction: number (16 mg/day): 1
- Serious adverse event Nausea: % (16 mg/day): (0.7%)
- Serious adverse event Nausea: number (16 mg/day): 2
- Serious adverse event Pneumonia: % (16 mg/day): (0.7%)
- Serious adverse event Pneumonia: number (16 mg/day): 2
- Serious adverse event Sepsis: % (16 mg/day): (0.0%)
- Serious adverse event Sepsis: number (16 mg/day): 0
- Serious adverse event Surgical intervention: % (16 mg/day): (1.1%)
- Serious adverse event Surgical intervention: number (16 mg/day): 3
- Serious adverse event Syncope: % (16 mg/day): (1.4%)
- Serious adverse event Syncope: number (16 mg/day): 4
- Serious adverse event Thrombophlebitis deep: % (16 mg/day): (0.0%)
- Serious adverse event Thrombophlebitis deep: number (16 mg/day): 0
- Serious adverse event Transient ischemic attack: % (16 mg/day): (0.7%)
- Serious adverse event Transient ischemic attack: number (16 mg/day): 2
- Serious adverse event Urinary tracq infection: % (16 mg/day): (0.7%)
- Serious adverse event Urinary tracq infection: number (16 mg/day): 2
- Serious adverse event Vomiting: % (16 mg/day): (0.7%)
- Serious adverse event Vomiting: number (16 mg/day): 2
- Syncope: % of patients (16 mg/day): (1.8%)
- Syncope: number of patients (16 mg/day): 5
- Total discontinued (DC): % (16 mg/day): 22%
- Total discontinued (DC): N (16 mg/day): 60
- Total patients with any SAE: % (16 mg/day): (10.0%)
- Total patients with any SAE: number (16 mg/day): 28
- Urinary tract infection: % of patients (16 mg/day): (8.2%)
- Urinary tract infection: number of patients (16 mg/day): 23
- Vomiting: % of patients (16 mg/day): (6.1%)
- Vomiting: number of patients (16 mg/day): 17
- Weight decrease: % of patients (16 mg/day): (5.4%)
- Weight decrease: number of patients (16 mg/day): 15
- Agitation: % of patients (24 mg/day): (8.1%)
- Agitation: number of patients (24 mg/day): 22
- Anorexia: % of patients (24 mg/day): (8.8%)
- Anorexia: number of patients (24 mg/day): 24
- Bradycardia: % of patients (24 mg/day): (2.9%)
- Bradycardia: number of patients (24 mg/day): 8
- Convulsions: % of patients (24 mg/day): (0.4%)
- Convulsions: number of patients (24 mg/day): 1
- DC due to adverse event: % (24 mg/day): 10%
- DC due to adverse event: N (24 mg/day): 27
- DC due to inefficacy: % (24 mg/day): 1%
- DC due to inefficacy: N (24 mg/day): 2
- Depression: % of patients (24 mg/day): (8.%)
- Depression: number of patients (24 mg/day): 22
- Diarrhea: % of patients (24 mg/day): (5.5%)
- Diarrhea: number of patients (24 mg/day): 15
- Dizziness: % of patients (24 mg/day): (7.0%)
- Dizziness: number of patients (24 mg/day): 19
- Dyspepsia: % of patients (24 mg/day): (5.5%)
- Dyspepsia: number of patients (24 mg/day): 15
- Edema peripheral: % of patients (24 mg/day): (2.6%)
- Edema peripheral: number of patients (24 mg/day): 7
- Fall: % of patients (24 mg/day): (4.4%)
- Fall: number of patients (24 mg/day): 12
- Fatigue: % of patients (24 mg/day): (4.8%)
- Fatigue: number of patients (24 mg/day): 13
- Headache: % of patients (24 mg/day): (4.8%)
- Headache: number of patients (24 mg/day): 13
- Injury: % of patients (24 mg/day): (5.9%)
- Injury: number of patients (24 mg/day): 16
- Muscle weakness: % of patients (24 mg/day): (0.4%)
- Muscle weakness: number of patients (24 mg/day): 1
- Nausea: % of patients (24 mg/day): (16.5%)
- Nausea: number of patients (24 mg/day): 45
- Rhinitis: % of patients (24 mg/day): (4.0%)
- Rhinitis: number of patients (24 mg/day): 11
- Serious adverse event Abdominal pain: % (24 mg/day): (0.0%)
- Serious adverse event Abdominal pain: number (24 mg/day): 0
- Serious adverse event Agitation: % (24 mg/day): (0.0%)
- Serious adverse event Agitation: number (24 mg/day): 0
- Serious adverse event Asthenia: % (24 mg/day): (0.4%)
- Serious adverse event Asthenia: number (24 mg/day): 1
- Serious adverse event Basal cell carcinoma: % (24 mg/day): (0.7%)
- Serious adverse event Basal cell carcinoma: number (24 mg/day): 2
- Serious adverse event Breast neoplasm female: % (24 mg/day): (0.0%)
- Serious adverse event Breast neoplasm female: number (24 mg/day): 0
- Serious adverse event Cardiac failure: % (24 mg/day): (0.0%)
- Serious adverse event Cardiac failure: number (24 mg/day): 0
- Serious adverse event Dehydration: % (24 mg/day): (0.0%)
- Serious adverse event Dehydration: number (24 mg/day): 0
- Serious adverse event Diarrhea: % (24 mg/day): (0.0%)
- Serious adverse event Diarrhea: number (24 mg/day): 0
- Serious adverse event Dyspnea: % (24 mg/day): (1.1%)
- Serious adverse event Dyspnea: number (24 mg/day): 3.
- Serious adverse event Fall: % (24 mg/day): (1.1%)
- Serious adverse event Fall: number (24 mg/day): 3
- Serious adverse event Gi haemorrhage: % (24 mg/day): (0.7%)
- Serious adverse event Gi haemorrhage: number (24 mg/day): 2
- Serious adverse event Injury: % (24 mg/day): (1.8%)
- Serious adverse event Injury: number (24 mg/day): 5
- Serious adverse event Myocardial infarction: % (24 mg/day): (0.4%)
- Serious adverse event Myocardial infarction: number (24 mg/day): 1
- Serious adverse event Nausea: % (24 mg/day): (0.0%)
- Serious adverse event Nausea: number (24 mg/day): 0
- Serious adverse event Pneumonia: % (24 mg/day): (1.1%)
- Serious adverse event Pneumonia: number (24 mg/day): 3
- Serious adverse event Sepsis: % (24 mg/day): (0.0%)
- Serious adverse event Sepsis: number (24 mg/day): 0
- Serious adverse event Surgical intervention: % (24 mg/day): (0.0%)
- Serious adverse event Surgical intervention: number (24 mg/day): 0
- Serious adverse event Syncope: % (24 mg/day): (1.8%)
- Serious adverse event Syncope: number (24 mg/day): 5
- Serious adverse event Thrombophlebitis deep: % (24 mg/day): (0.7%)
- Serious adverse event Thrombophlebitis deep: number (24 mg/day): 2
- Serious adverse event Transient ischemic attack: % (24 mg/day): (0.0%)
- Serious adverse event Transient ischemic attack: number (24 mg/day): 0
- Serious adverse event Urinary tracq infection: % (24 mg/day): (0.0%)
- Serious adverse event Urinary tracq infection: number (24 mg/day): 0
- Serious adverse event Vomiting: % (24 mg/day): (0.4%)
- Serious adverse event Vomiting: number (24 mg/day): 1
- Syncope: % of patients (24 mg/day): (3.3%)
- Syncope: number of patients (24 mg/day): 9
- Total discontinued (DC): % (24 mg/day): 22%
- Total discontinued (DC): N (24 mg/day): 61
- Total patients with any SAE: % (24 mg/day): (12.8%)
- Total patients with any SAE: number (24 mg/day): 35
- Urinary tract infection: % of patients (24 mg/day): (8.1%)
- Urinary tract infection: number of patients (24 mg/day): 22
- Vomiting: % of patients (24 mg/day): (9.9%)
- Vomiting: number of patients (24 mg/day): 27
- Weight decrease: % of patients (24 mg/day): (4.8%)
- Weight decrease: number of patients (24 mg/day): 13
